Assay results published in ChEMBL document CHEMBL6120962, “New Mitochondria-Targeted Fisetin Derivative Compromises Mitophagy and Limits Survival of Drug-Induced Senescent Breast Cancer Cells” (J Med Chem, 2024).
Activity calls are given as the source filed them. The rule behind the calls is not given here.

How the values were obtained:
Mitochondrial membrane [1] = experiment: Induction of mitochondrial membrane potential depolarization in tamoxifen-induced senescent human HCC1428 cells assessed as increase in depolarized dead cell level at 1 to 5 uM incubated for 24 hrs by 7-AAD staining based flow cytometric analysis; format: cell membranes; details: dose 1-5 µM
Mitochondrial membrane [2] = experiment: Induction of mitochondrial membrane potential depolarization in tamoxifen-induced senescent human MCF-10F cells assessed as increase in depolarized dead cell level at 1 to 5 uM incubated for 24 hrs by 7-AAD staining based flow cytometric analysis; format: cell membranes; details: dose 1-5 µM
HCC1428 [3] = experiment: Induction of mitochondrial dysfunction in tamoxifen-induced senescent human HCC1428 cells assessed as decrease in maximal respiration at 5 uM incubated for 6 hrs by real-time analysis; format: functional, cell-based
MCF-10F [4] = experiment: Induction of mitochondrial dysfunction in human MCF-10F cells assessed as decrease in ATP production at 5 uM incubated for 6 hrs by real time analysis; format: functional, cell-based
MCF-10F [5] = experiment: Induction of mitochondrial dysfunction in human MCF-10F cells assessed as decrease in coupling efficiency at 5 uM incubated for 6 hrs by real time analysis; format: functional, cell-based
HCC1428 [6] = experiment: Induction of ubiquitin-dependent mitophagy in tamoxifen-induced senescent human HCC1428 cells assessed as increase in parkin level at 5 uM by immunostaining based imaging cytometric analysis; format: functional, cell-based
HCC1428 [7] = experiment: Induction of ubiquitin-independent mitophagy in tamoxifen-induced senescent human HCC1428 cells assessed as increase in BNIP3 level at 1 to 5 uM by immunostaining based imaging cytometric analysis; format: functional, cell-based; details: dose 1-5 µM
HCC1428 [8] = experiment: Upregulation of BECN1 level in tamoxifen-induced senescent human HCC1428 cells at 1 to 5 uM by immunostaining based imaging cytometric analysis; format: functional, cell-based; details: dose 1-5 µM
HCC1500 = experiment: Induction of oxidative stress in tamoxifen-induced senescent human HCC1500 cells assessed as increase in mitochondrial superoxide production at 1 to 5 uM incubated for 24 hrs by MitoSOX red superoxide indicator based fluorescence analysis; format: functional, cell-based; details: dose 1-5 µM
HCC1428 [9] = experiment: Induction of apoptosis in tamoxifen-induced senescent human HCC1428 cells assessed as phosphatidylserine externalization at 1 to 5 uM incubated for 24 hrs by Annexin V-FITC staining based flow cytometric analysis; format: functional, cell-based; details: dose 1-5 µM
HCC1428 [10] = experiment: Induction of apoptosis in tamoxifen-induced senescent human HCC1428 cells assessed as increase in caspase 9 level incubated for 24 hrs by immunostaining based imaging cytometric analysis; format: functional, cell-based
ZR-75-30 [11] = experiment: Induction of apoptosis in tamoxifen-induced senescent human ZR-75-30 cells assessed as increase in caspase 9 level incubated for 24 hrs by immunostaining based imaging cytometric analysis; format: functional, cell-based
ZR-75-30 [12] = experiment: Induction of AMPK phosphorylation in tamoxifen-induced senescent human ZR-75-30 cells incubated for 24 hrs by immunostaining based imaging cytometric analysis; format: cell-based; details: filed as activator
[13] = target: RAC-alpha serine/threonine-protein kinase (Homo sapiens) (UniProt P31749); experiment: Binding affinity to recombinant human AKT (14 to 276 residues) assessed as interaction by measuring decrease in chemiluminescence signal at 0.01 to 5 uM incubated overnight by dot-blot analysis; details: dose 0.01-5 µM
MCF7 = experiment: Antitumor activity against ER-positive human MCF7 cells xenografted in Danio rerio embryo assessed as decrease in tumor size at 1 to 5 uM administered for 48 hrs by imaging analysis; format: functional, cell-based; details: dose 1-5 µM

RAC-alpha serine/threonine-protein kinase (Homo sapiens), sequence (P31749 whole entry, the tested form may be a part): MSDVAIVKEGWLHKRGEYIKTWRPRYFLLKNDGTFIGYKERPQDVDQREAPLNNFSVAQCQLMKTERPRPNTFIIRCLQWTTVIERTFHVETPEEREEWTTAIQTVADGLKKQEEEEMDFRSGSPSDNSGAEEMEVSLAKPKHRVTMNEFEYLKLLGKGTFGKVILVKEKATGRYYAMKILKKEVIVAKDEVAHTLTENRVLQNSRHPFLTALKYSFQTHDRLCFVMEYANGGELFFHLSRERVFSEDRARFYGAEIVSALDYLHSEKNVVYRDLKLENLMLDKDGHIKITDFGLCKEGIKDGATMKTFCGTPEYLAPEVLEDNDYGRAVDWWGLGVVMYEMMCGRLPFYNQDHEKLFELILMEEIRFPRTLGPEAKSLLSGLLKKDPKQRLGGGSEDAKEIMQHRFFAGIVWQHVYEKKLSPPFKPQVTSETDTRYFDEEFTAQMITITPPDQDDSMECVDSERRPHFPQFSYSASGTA

Activity (Mitochondrial membrane [1]): Active | Activity (Mitochondrial membrane [2]): inactive | Activity [13]: Active
Compound: CC(=O)Oc1ccc2c(=O)c(OCCCC[P+](c3ccccc3)(c3ccccc3)c3ccccc3)c(-c3ccc4c(c3)OC(c3ccccc3)(c3ccccc3)O4)oc2c1.[I-]
Activity (HCC1428 [3]): Active | Activity (MCF-10F [4]): inactive | Activity (MCF-10F [5]): inactive | Activity (HCC1428 [6]): Active | Activity (HCC1428 [7]): inactive | Activity (HCC1428 [8]): inactive | Activity (HCC1500): Active | Activity (HCC1428 [9]): Active | Activity (HCC1428 [10]): Active | Activity (ZR-75-30 [11]): Active | Activity (ZR-75-30 [12]): Active | Activity (MCF7): Active
